Measured values: patent publication US20230176063A1, “PHOTOREACTIVE AND CLEAVABLE PROBES FOR TAGGING BIOMOLECULES” (Academia Sinica, priority 2020, published 2023)

Tested on: nucleolin
Assay: photoselective tagging of nucleolin using azo probe
Assay type: cell-based
Details: fixed U2OS cells
Procedure: Nucleolin is a protein found in the nucleolus of eukaryotic cells and involved in the synthesis of ribosomes. Azo-probe 1 was conjugated to a secondary antibody by using BCN-NHS (CAS# 1516551-46-4) as additional linker between Azo-probe 1 and secondary antibody. A sample of U2OS cells was grown on a glass-bottom chamber slide and fixed with 2.4% PFA. The antibody conjugated with Azo-probe 1 was applied to the sample stained with anti-nucleolin antibody. The sample was exposed to 780 nm two-photon irradiation (200mW, 200 µs/pixel) to photocrosslink the light activated warhead to the antibody and subsequently incubated with 1 M sodium dithionite at room temperature for over 16 h to remove non-crosslinked probes. Neutravidin conjugated to Alexa Fluor 647 dye was added and the sample assayed for the Alexa Fluor 647. Alexa Fluor 647 is a bright, far-red-fluorescent dye with excitation ideally suited for the 594 nm or 633 nm laser lines. Results are shown in the top panel of FIG. 12B. A close-up view is shown in the top right side of FIG. 12B. […] A side view is shown in the bottom right of FIG. 12B.

O=C(CCCC[C@@H]1SC[C@@H]2NC(=O)N[C@@H]21)N[C@@H](Cc1cn(CCOCCOCCOCCNC(=O)c2ccc(C(=O)c3ccccc3)cc2)nn1)C(=O)NCCc1ccc(O)c(/N=N/c2ccc(C(=O)ON3C(=O)CCC3=O)cc2)c1 [Azo-probe 1]
Alexa Fluor 647 (Neutravidin) staining of tagged nucleolin (probe conjugated to secondary antibody via BCN-NHS, 780 nm two-photon irradiation (200mW, 200 µs/pixel), 1 M sodium dithionite over 16 h): characteristic nucleoli shape is observed | Alexa Fluor 647 (Neutravidin) staining of tagged nucleolin, control region (treated the same but not exposed to photoactivating light): No significant staining was observed
